Results reported in patent US6914045B2, “Glycopeptide antibiotics” (Wyeth Holdings Corporation, priority 2001, dated 2005).
Values after ≈ are worked out from the molar mass of the structure shown. Like-named read-outs stand apart in the source and are kept apart here. One block for each compound: values may come before it.

Assays:
Assay in all cases: in vitro antibacterial evaluation, MIC by broth dilution
Format in all cases: cell-based
Streptococcus sp. = test system: Streptococcus sp.
Procedure: (§1) Methods for in vitro Antibacterial Evaluation (Table 1)
(§2) The minimum inhibitory concentration (MIC), the lowest concentration of the antibiotic which inhibits growth of the test organism, is determined by the broth dilution method using Muller-Hinton II […] (Baltimore Biological Laboratories) following the recommendations of the National Committee for Clinical Laboratory Standards [Methods for dilution antimicrobial susceptibility tests for bacteria that grow aerobically, approved standard M7-A2, National Committee for Clinical Laboratory Standards, Villanova, Pa.].
(§3) An inoculum level of 5×10^5 CFU/mL, and a range of antibiotic concentrations (64-0.06 μg/mL) is used. […] The test organisms include a spectrum of Gram-positive bacteria comprised of Staphylococcus sp., Streptococcus sp. and Enterococcus sp. These organisms include recent clinical isolates that are resistant to methicillin, penicillin and/or vancomycin.

Staphylococcus sp. = test system: Staphylococcus sp.
Procedure: as §1, §2, §3

Enterococcus sp. = test system: Enterococcus sp.
Procedure: as §1, §2, §3

Escherichia coli = test system: Escherichia coli
Method in brief: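 Broth dilution MIC per NCCLS M7-A2 in Mueller-Hinton II medium, inoculum 5×10^5 CFU/mL, antibiotic range 64-0.06 μg/mL. MIC taken as lowest concentration inhibiting growth.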

SMILES: CC(c1ccccc1)C1NC(=O)CNC(=O)C(CO)NC(=O)C(C(O)C2CNC(=N)N2C2OC(CO)C(O)C(O)C2O)NC(=O)C(C(O)C2CNC(=N)N2)NC(=O)C(Cc2ccc3oc(-c4ccc5c(c4)Cc4ccccc4-5)nc3c2)NC1=O (stereo not drawn) [Example 37, Cyclo[3-[2-(9H-fluoren-2-yl)-1,3-benzoxazol-5-yl]alanyl-3-(2-iminoimidazolidin-4-yl)seryl-3-(3-hexopyranosyl-2-iminoimidazolidin-4-yl)serylserylglycyl-β-methylphenylalanyl]]
MIC Streptococcus agalactiae (GC 4564) (Streptococcus sp.): 16 µg/mL (≈ 13.8 µM) | MIC Streptococcus pneumoniae (ATCC 6301) (Streptococcus sp.): 32 µg/mL (≈ 27.6 µM) | MIC Streptococcus pneumoniae (GC 1894) (Streptococcus sp.): 16 µg/mL (≈ 13.8 µM) | MIC Streptococcus pneumoniae (GC 4565) (Streptococcus sp.): 16 µg/mL (≈ 13.8 µM) | MIC Streptococcus pyogenes (GC 4563) (Streptococcus sp.): 4 µg/mL (≈ 3.45 µM) | MIC Coagulase Negative Staphylococcus (GC 4547) (Staphylococcus sp.): 16 µg/mL (≈ 13.8 µM) | MIC Coagulase Negative Staphylococcus (GC 4548) (Staphylococcus sp.): 8 µg/mL (≈ 6.9 µM) | MIC Coagulase Negative Staphylococcus (GC 4549) (Staphylococcus sp.): 8 µg/mL (≈ 6.9 µM) | MIC Coagulase Negative Staphylococcus (GC 4551) (Staphylococcus sp.): 8 µg/mL (≈ 6.9 µM) | MIC Coagulase Negative Staphylococcus (GC 6257) (Staphylococcus sp.): 4 µg/mL (≈ 3.45 µM) | MIC Staphylococcus aureus (ATCC 29213) (Staphylococcus sp.): 16 µg/mL (≈ 13.8 µM) | MIC Staphylococcus aureus (GC 1131) (Staphylococcus sp.): 8 µg/mL (≈ 6.9 µM) | MIC Staphylococcus aureus (GC 3051) (Staphylococcus sp.): 8 µg/mL (≈ 6.9 µM) | MIC Staphylococcus aureus (GC 3053) (Staphylococcus sp.): 8 µg/mL (≈ 6.9 µM) | MIC Staphylococcus aureus (GC 4541) (Staphylococcus sp.): 8 µg/mL (≈ 6.9 µM) | MIC Staphylococcus aureus (GC 4542) (Staphylococcus sp.): 8 µg/mL (≈ 6.9 µM) | MIC Staphylococcus aureus (GC 4544) (Staphylococcus sp.): 8 µg/mL (≈ 6.9 µM) | MIC Staphylococcus aureus (GC 4545) (Staphylococcus sp.): 16 µg/mL (≈ 13.8 µM) | MIC Staphylococcus aureus-SMITH (GC 4543) (Staphylococcus sp.): 8 µg/mL (≈ 6.9 µM) | MIC Staphylococcus haemolyticus (GC 4546) (Staphylococcus sp.): 8 µg/mL (≈ 6.9 µM) | MIC Enterococcus avium (GC 4558) (Enterococcus sp.): 8 µg/mL (≈ 6.9 µM) | MIC Enterococcus faecalis (ATCC 29212) (Enterococcus sp.): 16 µg/mL (≈ 13.8 µM) | MIC Enterococcus faecalis (GC 2242) (Enterococcus sp.): 16 µg/mL (≈ 13.8 µM) | MIC Enterococcus faecalis (GC 2691) (Enterococcus sp.): 16 µg/mL (≈ 13.8 µM) | MIC Enterococcus faecalis (GC 3059) (Enterococcus sp.): 16 µg/mL (≈ 13.8 µM) | MIC Enterococcus faecalis (GC 4552) (Enterococcus sp.): 16 µg/mL (≈ 13.8 µM) | MIC Enterococcus faecalis (GC 4553) (Enterococcus sp.): 4 µg/mL (≈ 3.45 µM) | MIC Enterococcus faecalis (GC 4554) (Enterococcus sp.): 16 µg/mL (≈ 13.8 µM) | MIC Enterococcus faecalis (GC 6189) (Enterococcus sp.): 16 µg/mL (≈ 13.8 µM) | MIC Enterococcus faecium (GC 2243) (Enterococcus sp.): 8 µg/mL (≈ 6.9 µM) | MIC Enterococcus faecium (GC 4556) (Enterococcus sp.): 16 µg/mL (≈ 13.8 µM) | MIC Enterococcus faecium (GC 4557) (Enterococcus sp.): 4 µg/mL (≈ 3.45 µM) | MIC Escherichia coli (ATCC 25922) (Escherichia coli): 128 µg/mL (≈ 110 µM) | MIC Escherichia coli (GC 4559) (Escherichia coli): >128 µg/mL | MIC Escherichia coli (GC 4560) (Escherichia coli): 4 µg/mL (≈ 3.45 µM)

MIC Streptococcus pneumoniae (ATCC 6301) (Streptococcus sp.; strain ATCC 6301, broth dilution, 18 hours at 35° C.): 32 µg/mL (≈ 30.1 µM) | MIC Streptococcus pneumoniae (GC 1894) (Streptococcus sp.; strain GC 1894, broth dilution, 18 hours at 35° C.): 32 µg/mL (≈ 30.1 µM) | MIC Streptococcus pyogenes (GC 4563) (Streptococcus sp.; strain GC 4563, broth dilution, 18 hours at 35° C.): 32 µg/mL (≈ 30.1 µM) | MIC Streptococcus agalactiae (GC 4564) (Streptococcus sp.; strain GC 4564, broth dilution, 18 hours at 35° C.): 32 µg/mL (≈ 30.1 µM) | MIC Streptococcus pneumoniae (GC 4565) (Streptococcus sp.; strain GC 4565, broth dilution, 18 hours at 35° C.): 64 µg/mL (≈ 60.3 µM) | MIC Staphylococcus aureus (ATCC 29213) (Staphylococcus sp.; strain ATCC 29213, broth dilution, 18 hours at 35° C.): 64 µg/mL (≈ 60.3 µM) | MIC Staphylococcus aureus (GC 1131) (Staphylococcus sp.; strain GC 1131, broth dilution, 18 hours at 35° C.): 32 µg/mL (≈ 30.1 µM) | MIC Staphylococcus aureus (GC 3051) (Staphylococcus sp.; strain GC 3051, broth dilution, 18 hours at 35° C.): 64 µg/mL (≈ 60.3 µM) | MIC Staphylococcus aureus (GC 3053) (Staphylococcus sp.; strain GC 3053, broth dilution, 18 hours at 35° C.): 64 µg/mL (≈ 60.3 µM) | MIC Staphylococcus aureus (GC 4541) (Staphylococcus sp.; strain GC 4541, broth dilution, 18 hours at 35° C.): 64 µg/mL (≈ 60.3 µM) | MIC Staphylococcus aureus (GC 4542) (Staphylococcus sp.; strain GC 4542, broth dilution, 18 hours at 35° C.): 64 µg/mL (≈ 60.3 µM) | MIC Staphylococcus aureus-SMITH (GC 4543) (Staphylococcus sp.; strain GC 4543, broth dilution, 18 hours at 35° C.): 64 µg/mL (≈ 60.3 µM) | MIC Staphylococcus aureus (GC 4544) (Staphylococcus sp.; strain GC 4544, broth dilution, 18 hours at 35° C.): 64 µg/mL (≈ 60.3 µM) | MIC Staphylococcus aureus (GC 4545) (Staphylococcus sp.; strain GC 4545, broth dilution, 18 hours at 35° C.): 32 µg/mL (≈ 30.1 µM) | MIC Coagulase Negative Staphylococcus (GC 4547) (Staphylococcus sp.; strain GC 4547, broth dilution, 18 hours at 35° C.): 32 µg/mL (≈ 30.1 µM) | MIC Coagulase Negative Staphylococcus (GC 4548) (Staphylococcus sp.; strain GC 4548, broth dilution, 18 hours at 35° C.): 32 µg/mL (≈ 30.1 µM) | MIC Coagulase Negative Staphylococcus (GC 4549) (Staphylococcus sp.; strain GC 4549, broth dilution, 18 hours at 35° C.): 64 µg/mL (≈ 60.3 µM) | MIC Coagulase Negative Staphylococcus (GC 4551) (Staphylococcus sp.; strain GC 4551, broth dilution, 18 hours at 35° C.): 64 µg/mL (≈ 60.3 µM) | MIC Coagulase Negative Staphylococcus (GC 6257) (Staphylococcus sp.; strain GC 6257, broth dilution, 18 hours at 35° C.): 16 µg/mL (≈ 15.1 µM) | MIC Enterococcus faecalis (ATCC 29212) (Enterococcus sp.; strain ATCC 29212, broth dilution, 18 hours at 35° C.): 128 µg/mL (≈ 121 µM) | MIC Enterococcus faecalis (GC 2242) (Enterococcus sp.; strain GC 2242, broth dilution, 18 hours at 35° C.): 128 µg/mL (≈ 121 µM) | MIC Enterococcus faecium (GC 2243) (Enterococcus sp.; strain GC 2243, broth dilution, 18 hours at 35° C.): 128 µg/mL (≈ 121 µM) | MIC Enterococcus faecalis (GC 2691) (Enterococcus sp.; strain GC 2691, broth dilution, 18 hours at 35° C.): 128 µg/mL (≈ 121 µM) | MIC Enterococcus faecalis (GC 3059) (Enterococcus sp.; strain GC 3059, broth dilution, 18 hours at 35° C.): >128 µg/mL | MIC Enterococcus faecalis (GC 4552) (Enterococcus sp.; strain GC 4552, broth dilution, 18 hours at 35° C.): 128 µg/mL (≈ 121 µM) | MIC Enterococcus faecalis (GC 4553) (Enterococcus sp.; strain GC 4553, broth dilution, 18 hours at 35° C.): 64 µg/mL (≈ 60.3 µM) | MIC Enterococcus faecalis (GC 4554) (Enterococcus sp.; strain GC 4554, broth dilution, 18 hours at 35° C.): 128 µg/mL (≈ 121 µM) | MIC Enterococcus faecium (GC 4556) (Enterococcus sp.; strain GC 4556, broth dilution, 18 hours at 35° C.): 128 µg/mL (≈ 121 µM) | MIC Enterococcus faecium (GC 4557) (Enterococcus sp.; strain GC 4557, broth dilution, 18 hours at 35° C.): 32 µg/mL (≈ 30.1 µM) | MIC Enterococcus avium (GC 4558) (Enterococcus sp.; strain GC 4558, broth dilution, 18 hours at 35° C.): 64 µg/mL (≈ 60.3 µM) | MIC Enterococcus faecalis (GC 6189) (Enterococcus sp.; strain GC 6189, broth dilution, 18 hours at 35° C.): 128 µg/mL (≈ 121 µM) | MIC Escherichia coli (ATCC 25922) (Escherichia coli; strain ATCC 25922, broth dilution, 18 hours at 35° C.): 64 µg/mL (≈ 60.3 µM) | MIC Escherichia coli (GC 4559) (Escherichia coli; strain GC 4559, broth dilution, 18 hours at 35° C.): 64 µg/mL (≈ 60.3 µM) | MIC Escherichia coli (GC 4560) (Escherichia coli; strain GC 4560, broth dilution, 18 hours at 35° C.): 32 µg/mL (≈ 30.1 µM)
SMILES: CC(c1ccccc1)C1NC(=O)CNC(=O)C(CO)NC(=O)C(C(O)C2CNC(=N)N2C2OC(CO)C(O)C(O)C2O)NC(=O)C(C(O)C2CNC(=N)N2)NC(=O)C(Cc2ccc3oc(-c4ccoc4)nc3c2)NC1=O (stereo not drawn) [Example 38, Cyclo[3-[2-(3-furyl)-1,3-benzoxazol-5-yl]alanyl-3-(2-iminoimidazolidin-4-yl)seryl-3-(3-hexopyranosyl-2-iminoimidazolidin-4-yl)serylserylglycyl-β-methylphenylalanyl]]
MIC Staphylococcus haemolyticus (GC 4546) (Staphylococcus sp.; strain GC 4546, broth dilution, 18 hours at 35° C.): 16 µg/mL (≈ 15.1 µM)
